Here are results for four compounds from patent US20230357154A1 (priority 2019, published 2023).

The conditions of data set [1]: mouse, in vivo; for CA (pooled): BChE-KO, 5XFAD-BChE-KO (pooled).
Data set [2] is classed as in vivo. Particulars: 5XFAD mouse, IV, 3D SPECT.

Like-named read-outs stand apart in the source and are kept apart here.

`O=C(OCc1ccc(I)cc1)c1cccc(=O)[nH]1` [TRV7005, (p-Iodophenyl)methyl 6-oxo-1H-pyridine-2-carboxylate]: the “time of peak radioligand uptake in brain” value in data set [1] (5XFAD and WT (wild-type)) stood at 2 minutes post-injection. In addition, the “CA (pooled)” value in data set [1] (5XFAD, WT) is 45.4 ± 2.4 % Cmax. The results for the t1/2 clearance in data set [1] (5XFAD) and in data set [1] (WT) were 6.51 ± 1.19 min and 7.21 ± 1.75 min, respectively. Also, the “CA (asymptotic tracer concentration)” value in data set [1] (5XFAD-BChE-KO) was determined as 42.8 % Cmax. Also, the “kclearance (pooled)” value in data set [1] was 0.11 ± 0.02 min⁻¹.
For `Cn1c(C(=O)OCc2ccc(I)cc2)cccc1=O` [TRV7006, (p-Iodophenyl)methyl 1-methyl-6-oxo-1H-pyridine-2-carboxylate], in data set [1] (5XFAD, WT), the “CA (pooled)” value is 51.6 ± 3.4 % Cmax. Further, the “time of peak radioligand uptake in brain” value in data set [1] (WT and BChE-KO) is listed as 2 minutes post-injection. The t1/2 clearance in data set [1] (WT) is 4.72 ± 0.93 min. The “kclearance (pooled)” value in data set [1] was found to be 0.17 ± 0.03 min⁻¹.
For the compound `COc1cccc(C(=O)OCc2ccc(I)cc2)n1` [TRV7019, (p-iodophenyl)methyl 6-methoxy-2-pyridinecarboxylate], the “time of peak radioligand uptake in brain” value in data set [1] (5XFAD and WT) was determined as 1 minutes post-injection. The same compound gave a decrease in kclearance in data set [1] (5XFAD compared to WT) of 58%. In addition, the “increase in t1/2clearance” value in data set [1] (5XFAD compared to WT) came out at 82%. In addition, the “CA (pooled)” value in data set [1] (5XFAD, WT) was determined as 56.1 ± 3.5 % Cmax. The t1/2 clearance in data set [1] (5XFAD) is 3.22 ± 0.55 min; in data set [1] (WT), 1.77 ± 0.15 min; in data set [1], 1.77 ± 0..15 min.
`O=C(OCc1ccccc1)c1cccc(OCc2ccc(I)cc2)n1` [TRV7040, Benzyl 6-[(p-iodophenyl)methoxy]-2-pyridinecarboxylate]: in data set [2], the “distribution of the tracer in vivo (extracranial)” value was “avid uptake of TRV7040 is seen in the eye and hardarian glands”; the “radioligand reaching the brain” value is on record as “negligible radioligand reaching the brain”. The “ability to cross the blood-brain barrier / brain uptake” value in data set [1] (iv, 60 min) was “inability of TRV7040 to cross the BBB and reach the brain”.
